In ChEMBL document CHEMBL1201862, “PubChem BioAssay data set” (2004) one finds EC50 and AC50 data, which are given here for 26 molecules.

What is called AC50 is the midpoint of the concentration-response curve, whichever way the signal moves.

Assay [1] is described as follows: Luminescence Cell-Based Dose Response HTS to Identify Inhibitors of 5'UTR Stem-Loop Driven Prion Protein mRNA Translation in H4 Neuroglioblastoma Cells. [Related pubchem assays: 1827 (Project Summary), 1813 (Primary HTS)]. The assay is classed as functional.
Assay [2] is described as follows: inhibitors of SNCA 5'UTR-driven reporter translation, confirmation, H4 neuroglioma cells, luminescence (AID 1988). The assay is classed as functional, cell-based.
The nature of assay [3]: inhibitors of firefly luciferase expression or activity, dose response, H4 neuroglioma cells, luminescence (AID 1990). The assay is classed as functional, cell-based.
Assay [4] addresses T1, Replicative DNA helicase DnaB (Mycobacterium tuberculosis, UniProt P9WMR3).
T1 sequence (P9WMR3 whole entry): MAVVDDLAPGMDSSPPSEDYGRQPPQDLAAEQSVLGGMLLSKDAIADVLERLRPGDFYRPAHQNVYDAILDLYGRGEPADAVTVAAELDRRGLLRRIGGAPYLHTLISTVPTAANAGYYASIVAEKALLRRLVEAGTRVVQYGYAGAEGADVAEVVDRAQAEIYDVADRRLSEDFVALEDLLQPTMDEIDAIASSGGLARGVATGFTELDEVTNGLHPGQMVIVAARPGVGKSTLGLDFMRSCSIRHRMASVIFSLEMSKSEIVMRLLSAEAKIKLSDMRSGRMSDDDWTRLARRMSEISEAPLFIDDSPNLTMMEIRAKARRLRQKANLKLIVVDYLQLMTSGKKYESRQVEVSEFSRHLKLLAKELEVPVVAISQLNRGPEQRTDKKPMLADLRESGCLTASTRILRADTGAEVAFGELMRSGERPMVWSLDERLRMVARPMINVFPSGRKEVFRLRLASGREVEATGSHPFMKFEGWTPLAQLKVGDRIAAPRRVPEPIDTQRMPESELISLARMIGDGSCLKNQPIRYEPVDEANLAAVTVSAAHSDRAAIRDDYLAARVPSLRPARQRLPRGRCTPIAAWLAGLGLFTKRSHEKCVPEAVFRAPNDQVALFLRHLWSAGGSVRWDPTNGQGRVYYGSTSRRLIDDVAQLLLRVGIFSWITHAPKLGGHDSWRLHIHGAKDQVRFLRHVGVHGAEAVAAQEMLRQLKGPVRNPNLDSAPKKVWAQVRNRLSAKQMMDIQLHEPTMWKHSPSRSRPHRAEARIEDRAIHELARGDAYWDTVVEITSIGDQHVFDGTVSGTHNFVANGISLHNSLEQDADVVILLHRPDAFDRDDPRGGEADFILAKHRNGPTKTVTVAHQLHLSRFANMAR
Briefly: DnaB intein splicing inhibitors, dose response, biochemical, cell-free fluorescence (AID 449749). The format is functional.

For another assay, the target named is T2, Protein RecA (Mycobacterium tuberculosis, UniProt P9WHJ3).
T2 sequence (P9WHJ3 whole entry): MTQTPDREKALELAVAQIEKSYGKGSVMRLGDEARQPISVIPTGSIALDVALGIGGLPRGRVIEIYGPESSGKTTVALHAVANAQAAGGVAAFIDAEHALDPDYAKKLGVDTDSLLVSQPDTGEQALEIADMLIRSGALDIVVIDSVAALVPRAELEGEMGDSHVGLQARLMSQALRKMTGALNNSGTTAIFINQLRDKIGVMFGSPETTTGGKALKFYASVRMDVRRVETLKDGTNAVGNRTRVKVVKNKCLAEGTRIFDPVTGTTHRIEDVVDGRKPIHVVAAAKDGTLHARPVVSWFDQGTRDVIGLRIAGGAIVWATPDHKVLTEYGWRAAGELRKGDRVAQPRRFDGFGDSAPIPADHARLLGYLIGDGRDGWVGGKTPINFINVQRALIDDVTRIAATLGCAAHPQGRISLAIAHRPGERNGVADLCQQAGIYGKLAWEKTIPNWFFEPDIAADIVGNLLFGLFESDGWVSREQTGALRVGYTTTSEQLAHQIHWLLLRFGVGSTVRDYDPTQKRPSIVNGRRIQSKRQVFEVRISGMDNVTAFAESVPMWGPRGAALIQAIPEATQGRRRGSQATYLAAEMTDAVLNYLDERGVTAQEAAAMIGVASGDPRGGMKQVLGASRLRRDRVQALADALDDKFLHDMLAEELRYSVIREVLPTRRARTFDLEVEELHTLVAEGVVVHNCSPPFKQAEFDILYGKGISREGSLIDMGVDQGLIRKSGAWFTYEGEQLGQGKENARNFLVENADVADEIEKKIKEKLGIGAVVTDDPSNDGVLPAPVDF
The assay is described as follows: Fluorescence Cell-Free Homogeneous Dose Retest to Identify Inhibitors of RecA-Intein Splicing Activity. [Related pubchem assays (depositor defined):AID2097, AID2223, AID489010, AID492950]. The format is functional.

The target in assay [5] is Luciferin 4-monooxygenase (Photinus pyralis, UniProt P08659). Briefly: firefly luciferase enzyme inhibitors, dose response, biochemical, luminescence (AID 1891).
Luciferin 4-monooxygenase, sequence (P08659 whole entry): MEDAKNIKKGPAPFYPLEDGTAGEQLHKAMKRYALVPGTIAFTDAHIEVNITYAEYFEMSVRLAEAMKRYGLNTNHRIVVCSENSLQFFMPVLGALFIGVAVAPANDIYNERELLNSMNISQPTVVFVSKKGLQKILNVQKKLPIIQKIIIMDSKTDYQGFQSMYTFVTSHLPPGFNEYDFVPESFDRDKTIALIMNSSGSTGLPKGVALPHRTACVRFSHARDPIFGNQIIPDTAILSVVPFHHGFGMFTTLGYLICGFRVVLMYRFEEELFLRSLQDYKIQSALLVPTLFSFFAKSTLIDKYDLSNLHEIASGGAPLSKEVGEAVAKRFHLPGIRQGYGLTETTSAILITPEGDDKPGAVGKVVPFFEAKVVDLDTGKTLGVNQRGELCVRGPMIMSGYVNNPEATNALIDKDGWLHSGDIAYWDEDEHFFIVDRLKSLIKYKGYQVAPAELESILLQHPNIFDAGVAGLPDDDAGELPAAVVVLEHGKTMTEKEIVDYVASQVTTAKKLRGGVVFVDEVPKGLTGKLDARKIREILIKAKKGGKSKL
Assay [6] is described as follows: Luminescence Cell-Based Dose Confirmation HTS to Identify Inhibitors of Platelet Dense Granule Release. [Related pubchem assays: 1663 (Primary HTS), 1678 (Summary of Project)]. The format is functional.
The target in a further assay is Cytochrome P450 2D6 (Homo sapiens, UniProt P10635).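 Further: CYP2D6 member of a cytochrome P450 panel assay.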
Cytochrome P450 2D6, sequence (P10635 whole entry): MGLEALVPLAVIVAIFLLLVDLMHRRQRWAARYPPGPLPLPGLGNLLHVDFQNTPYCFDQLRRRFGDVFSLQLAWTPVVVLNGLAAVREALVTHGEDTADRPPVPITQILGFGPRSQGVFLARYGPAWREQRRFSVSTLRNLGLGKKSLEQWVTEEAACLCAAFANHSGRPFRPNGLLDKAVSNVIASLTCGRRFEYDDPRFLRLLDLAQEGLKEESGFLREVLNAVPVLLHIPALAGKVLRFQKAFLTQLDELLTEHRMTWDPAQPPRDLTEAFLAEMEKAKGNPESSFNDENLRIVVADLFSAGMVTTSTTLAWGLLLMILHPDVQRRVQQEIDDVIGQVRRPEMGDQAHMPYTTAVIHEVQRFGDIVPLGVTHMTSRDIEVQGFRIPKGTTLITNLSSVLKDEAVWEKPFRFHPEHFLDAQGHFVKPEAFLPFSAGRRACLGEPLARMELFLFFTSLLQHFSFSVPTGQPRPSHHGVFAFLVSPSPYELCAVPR
The target in assay [7] is T3, Corticotropin-releasing factor receptor 2/Corticotropin-releasing factor-binding protein (Homo sapiens, UniProt P24387+Q13324).
T3 sequence (Q13324 whole entry): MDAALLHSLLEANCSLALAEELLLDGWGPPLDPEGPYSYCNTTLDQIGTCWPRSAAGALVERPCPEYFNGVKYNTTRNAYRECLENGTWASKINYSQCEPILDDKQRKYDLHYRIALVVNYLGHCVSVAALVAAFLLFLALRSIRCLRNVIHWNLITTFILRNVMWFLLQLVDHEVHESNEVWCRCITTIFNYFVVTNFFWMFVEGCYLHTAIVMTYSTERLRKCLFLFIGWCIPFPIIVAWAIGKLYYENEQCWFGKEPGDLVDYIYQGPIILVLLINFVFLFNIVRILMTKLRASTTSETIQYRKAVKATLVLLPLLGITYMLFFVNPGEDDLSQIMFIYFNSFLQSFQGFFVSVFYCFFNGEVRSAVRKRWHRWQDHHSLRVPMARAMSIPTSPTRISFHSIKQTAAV
T3 sequence (P24387 whole entry): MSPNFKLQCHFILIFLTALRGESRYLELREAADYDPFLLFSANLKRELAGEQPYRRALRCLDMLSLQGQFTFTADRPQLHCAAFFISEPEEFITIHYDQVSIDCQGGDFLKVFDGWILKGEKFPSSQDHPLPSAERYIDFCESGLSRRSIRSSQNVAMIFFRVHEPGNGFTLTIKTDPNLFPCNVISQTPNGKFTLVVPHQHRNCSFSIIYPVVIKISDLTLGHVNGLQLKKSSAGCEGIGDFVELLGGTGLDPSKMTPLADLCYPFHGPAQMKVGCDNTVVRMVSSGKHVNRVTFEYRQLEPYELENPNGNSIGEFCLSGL
The assay is described as follows: activators of CRF receptor 2 with binding protein – uHTS hits, confirmation (AID 602473). The format is functional. The settings on record: read-out: EC50_Mean.

A further assay addresses Cytochrome P450 2C9 (Homo sapiens, UniProt P11712).
Assay [8] in a line: Luminescence Cell-Based Dose Response HTS to Identify Activators of Luciferase Translation or Activity in H4 […] Cells. [Related pubchem assays: 1829 (Project Summary), 1814 (Primary HTS)]. The assay is classed as functional.
The next assay concerns the target Cytochrome P450 2C19 (Homo sapiens, UniProt P33261). The assay is described as follows: Cytochrome panel assay with activity outcomes. Panel member name: p450-cyp2c19 Compounds with AC50 equal or less than 10 uM are considered active. The format is functional. The settings on record: read-out: AC50.
In the next assay the target is T4, Cytochrome P450 1A2 (Homo sapiens, UniProt P05177).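 Further: PubChem cytochrome P450 panel assay, CYP1A2 panel member.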
T4 sequence (P05177 whole entry): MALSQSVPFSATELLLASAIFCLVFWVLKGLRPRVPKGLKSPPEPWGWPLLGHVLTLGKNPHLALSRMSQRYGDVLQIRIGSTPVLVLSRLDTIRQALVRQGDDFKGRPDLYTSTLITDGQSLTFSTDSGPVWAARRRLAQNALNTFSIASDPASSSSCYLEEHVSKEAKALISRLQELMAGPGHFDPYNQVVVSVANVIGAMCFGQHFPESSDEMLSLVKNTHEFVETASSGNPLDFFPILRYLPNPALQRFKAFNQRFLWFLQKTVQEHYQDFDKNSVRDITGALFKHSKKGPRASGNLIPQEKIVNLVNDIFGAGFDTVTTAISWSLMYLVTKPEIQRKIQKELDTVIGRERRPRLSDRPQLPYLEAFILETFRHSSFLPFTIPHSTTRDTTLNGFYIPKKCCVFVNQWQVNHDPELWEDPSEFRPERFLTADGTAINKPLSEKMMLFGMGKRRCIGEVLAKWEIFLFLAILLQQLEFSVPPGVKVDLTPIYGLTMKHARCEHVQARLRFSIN

The next assay relates to H4. Briefly: Luminescence Cell-Based Dose Response HTS to Identify Activators of 5'UTR Stem-Loop Driven Prion Protein mRNA Translation in H4 Neuroglioblastoma Cells. [Related pubchem assays: 1829 (Project Summary), 1814 (Primary HTS)]. The conditions noted are these: Homo sapiens. The assay is classed as functional.

Active and inactive are the calls of the source. Bounds are passed on as bounds.

Cytochrome P450 2C9, sequence (P11712 whole entry): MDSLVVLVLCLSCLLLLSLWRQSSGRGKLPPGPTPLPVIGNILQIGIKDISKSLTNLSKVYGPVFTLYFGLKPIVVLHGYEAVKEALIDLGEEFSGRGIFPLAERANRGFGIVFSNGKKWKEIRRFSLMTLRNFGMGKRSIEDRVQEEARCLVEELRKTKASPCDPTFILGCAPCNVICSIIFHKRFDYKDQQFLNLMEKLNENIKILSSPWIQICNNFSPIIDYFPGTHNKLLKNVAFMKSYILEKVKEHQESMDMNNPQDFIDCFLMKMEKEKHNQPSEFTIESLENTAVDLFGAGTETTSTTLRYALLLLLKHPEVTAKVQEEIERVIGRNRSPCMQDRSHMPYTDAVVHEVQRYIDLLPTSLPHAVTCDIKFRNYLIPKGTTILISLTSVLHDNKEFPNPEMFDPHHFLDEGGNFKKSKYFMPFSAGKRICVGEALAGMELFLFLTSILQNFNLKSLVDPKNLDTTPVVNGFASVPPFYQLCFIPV
Cytochrome P450 2C19, sequence (P33261 whole entry): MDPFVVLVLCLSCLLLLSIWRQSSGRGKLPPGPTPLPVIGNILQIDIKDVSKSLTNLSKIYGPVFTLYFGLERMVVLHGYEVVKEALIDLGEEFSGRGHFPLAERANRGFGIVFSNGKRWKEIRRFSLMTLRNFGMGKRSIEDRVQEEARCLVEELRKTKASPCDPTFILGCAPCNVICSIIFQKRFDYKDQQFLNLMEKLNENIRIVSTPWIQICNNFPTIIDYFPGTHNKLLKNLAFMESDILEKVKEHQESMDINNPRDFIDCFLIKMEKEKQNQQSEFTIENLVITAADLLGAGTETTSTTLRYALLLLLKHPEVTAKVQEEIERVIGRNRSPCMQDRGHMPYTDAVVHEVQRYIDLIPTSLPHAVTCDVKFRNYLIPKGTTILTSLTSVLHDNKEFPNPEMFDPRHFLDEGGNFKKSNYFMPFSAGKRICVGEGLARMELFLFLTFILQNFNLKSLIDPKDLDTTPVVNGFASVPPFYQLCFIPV

As to `CCCn1c(N2CCN(CC(=O)c3c(C)n(C)c4ccc(OC)cc34)CC2)nc2c1c(=O)[nH]c(=O)n2C`, the EC50 in assay [1] was 13.5 µM (active); in assay [2], > 120 µM (not active); in [3] it was 18.9 µM (active).
`CN(C)CCSc1n[nH]c2nc3ccccc3c-2n1`: the AC50 in assay [4] was 7.37 µM (active). Besides, on Protein RecA, the EC50 is 2.79 µM (active).
For the molecule `O=S(=O)(Nc1ccc(-c2ccc3nncn3n2)cc1)c1cc(F)ccc1F`, the EC50 in [5] and in [6] was > 112 µM (not active) throughout.
Consider `NC(=O)c1ccccc1-c1nc(-n2ccnc2)c2ccccc2n1`, for which, on Cytochrome P450 2D6, the AC50 is 39.8 µM (inconclusive).
In the case of `CCOC(=O)c1cc(C)sc1NC(=O)CSC1=NCCS1`, in assay [4], the AC50 is 12 µM (active). The EC50 on Protein RecA is 21.4 µM (active).
For `CCN(CC)CCN1C(=O)C(O)=C(C(C)=O)C1c1ccccc1[N+](=O)[O-]` (stereo unspecified), in that order: 10 µM (active) and 3.71 µM (active).
On to `Cn1cnc([N+](=O)[O-])c1Oc1cccc2ccccc12`, for which the AC50 in [4] was 28.3 µM (active). Moreover, the EC50 on Protein RecA is 13.2 µM (active).
Regarding `O=S(=O)(NC1CCCC1)c1ccc(S(=O)(=O)NC2CCCC2)cc1`, the EC50 in assay [7] was > 53 µM (inactive).
Regarding `COc1ccccc1Nc1nc(NCc2ccco2)c2ccccc2n1`, the EC50 in [5] and in assay [6] was > 112 µM (not active) throughout.
`CCCCOP(=O)(OCCCC)C1(NS(=O)(=O)c2ccccc2)C=CC(=O)c2ccccc21` (stereo unspecified): the AC50 in assay [4] is 4.8 µM (active). At Protein RecA, the EC50 is 1.82 µM (active).
Regarding `COc1cccc(C(=O)/C=C/c2ccc(SC)cc2)c1`, the figures for the AC50 on Cytochrome P450 2C9 and at Cytochrome P450 2D6 were 10 µM (inconclusive) and 14.1 µM (inconclusive), respectively.
As to `COC(=O)c1ccc(N2CCN(CC(=O)c3ccc(-c4ccccc4)cc3)CC2)c([N+](=O)[O-])c1`, the EC50 in [5] and in [6] was > 112 µM (not active) each time.
In the case of `C[C@H]1CN(S(=O)(=O)c2cccc3cnccc23)CCN1`, the AC50 on Cytochrome P450 2D6 is 39.8 µM (inconclusive).
Turning to `COc1ccc(N2Cc3ccc(OC)c(OC)c3C2=O)cc1`, in [8], the EC50 was 0.379 µM (active).
Regarding `COc1ccc(C2NC(=O)c3[nH]nc(C)c32)c(OC)c1` (stereo unspecified), the EC50 in [5] was > 112 µM (not active); in [6], 2.83 µM (active).
`CCn1cc(-c2nnnn2-c2ccc(Cl)cc2)c(=O)c2ccccc21`: the AC50 on Cytochrome P450 2D6 is 11.2 µM (inconclusive).
`COCC(C)NCc1cccc([N+](=O)[O-])c1` (stereo unspecified): the AC50 on Cytochrome P450 2C9 was 0.398 µM (inconclusive); at Cytochrome P450 2D6, 14.1 µM (inconclusive); at Cytochrome P450 2C19 it was 11.2 µM (inconclusive).
For the molecule `Cc1ccc(Nc2nc(N3CCOCC3)c3ccccc3n2)cc1`, the EC50 in [5] and in [6] was > 112 µM (not active) each time.
Turning to `Cc1[nH]c2ccccc2c1C(=O)CSc1nncn1C`, the EC50 in assay [5] and in assay [6] was > 112 µM (not active) throughout.
As for `O=C(Cn1c(C(F)(F)F)nc2ccccc21)c1ccccc1`, the values for the AC50 on Cytochrome P450 1A2 and on Cytochrome P450 2D6 were 25.1 µM (inconclusive) and 15.8 µM (inconclusive), respectively.
As for `CC1=CC(=O)OC2CC3OC4C[C@@H](C)C5OC6CC7O[C@]8(C)C/C=C\C9OC%10CC%11OC(CC(C)C%12OCCO%12)CC(O)[C@]%11(C)OC%10CC9OC8C[C@]7(C)O[C@]6(C)CCC5OC4C[C@]3(C)OC12` (stereo partly specified), the EC50 in assay [7] is 5.68 µM (active).
With `COc1cccc(/N=C2\C(Cl)=C(O)OC2OC(=O)c2ccco2)c1` (stereo unspecified), the AC50 in assay [4] is 22.3 µM (active). Besides, the EC50 at Protein RecA is 14.6 µM (active).
`O=c1c(/C=N/Nc2ccccc2)c(Sc2nnnn2-c2ccccc2)nc2ccccn12`: in assay [7], the EC50 is 10.1 µM (active).
On to `COc1cc(-c2nc3ccccn3c2/N=C/c2ccccc2)ccc1O`, for which, at Cytochrome P450 2D6, the AC50 is 28.2 µM (inconclusive).
Turning to `COc1cc(OC)cc(C(=O)Oc2ccc(/C=N/Nc3nc4ccccc4s3)cc2OC)c1`, the figures for the EC50 (in [8]; in the assay on H4) were 5.84 µM (active) and 7.55 µM (active), respectively.
`CC(C)c1ccc(/C=N/NC(=O)c2nnn(-c3nonc3N)c2CSC2=NCCS2)cc1`: in assay [4], the AC50 was 9.47 µM (active). In addition, the EC50 on Protein RecA is 8.86 µM (active).
